Source: patent US20230173018A1, “CASPOFUNGIN DERIVATIVES AND ASSAYS FOR EVALUATING ANTIFUNGAL TREATMENT EFFICACY” (priority 2020, published 2023)

What was measured:
Assay type in all cases: cell-based
[1] = test system: C. albicans SC5314 and SN152; assay: Competition for cellular uptake with probe 1, flow cytometry; details: added simultaneously with probe 1; caspofungin 1 μM, 10 μM; fluconazole 10 μM
Description: To determine if caspofungin competes for cellular uptake with fluorescent probe 1, both the drug and the probe were added simultaneously to cultures of strains SC5314 and SN152. The uptake of probe 1 was measured by flow cytometry every 15 minutes for 1 hour (FIG. 6B). […] No effect on the uptake of probe 1 was detected in cells co-treated with the antifungal azole drug fluconazole, which inhibits the biosynthesis of fungal membrane sterol, ergosterol.

[2] = test system: C. albicans SC5314 and SN152 cells; assay: Effect of endocytosis inhibitors on probe 1 uptake, flow cytometry; details: 8 μg/mL inhibitor, 1 μM probe 1, after 30 min, both SC5314 and SN152
Description: Assuming that echinocandin probe uptake occurs via endocytosis, then inhibitors of endocytosis should inhibit probe uptake as well. The accumulation of probe 1 in C. albicans SC5314 and SN152 cells was measured by flow cytometry in the absence and presence of endocytosis inhibitors trifluoperazine (TFP) or pyrroloquinoxaline derivative CGS 12066B (FIG. 6A).
For example, after 30 min, TFP inhibited the uptake of probe 1 by approximately 30% and CGS 12066B inhibited its uptake by approximately 60% in both C. albicans SC5314 and SN152.

[3] = test system: C. albicans SC5314 and C. albicans SN152; assay: Effect of endocytosis inhibitors on growth of Candida cells; details: 8 μg/mL, FIGS. 6C-6F

Row | SMILES | effect on the uptake of probe 1 [1] | inhibition of the uptake of probe 1 [2] | effect on growth [3] | inhibition at 8 µg/mL ([2]; Candida albicans, 0.5 h) [%]
1 | OC(Cn1cncn1)(Cn1cncn1)c1ccc(F)cc1F [fluconazole] | No effect |  |  | 
2 | CN1CCN(c2nc3cc(C(F)(F)F)ccc3n3cccc23)CC1.O=C(O)/C=C\C(=O)O.O=C(O)/C=C\C(=O)O [CGS 12066B] |  | approximately 60% | modestly reduce growth | 
3 | CN1CCN(CCCN2c3ccccc3Sc3ccc(C(F)(F)F)cc32)CC1 [TFP, trifluoperazine] |  |  | modestly reduce growth | ~30
